Laboratory results as given in US7834028B2, “Pyrazolo-tetrahydro pyridine derivatives as orexin receptor antagonists” (Actelion Pharmaceuticals Ltd., priority 2006, dated 2010).

Experiments:
[1] = biological target: T1, human orexin-2 receptor (Homo sapiens, UniProt O43614); experiment: Intracellular calcium measurements (FLIPR), orexin-A induced, CHO cells expressing human orexin-2 receptor; assay type: cell-based; settings: 10 nM orexin-A as agonist, read-out: IC50 OX2
T1 construct: expressed in transfected cells; host or cells: CHO cells (G418 selection)
T1 sequence (O43614 1-444): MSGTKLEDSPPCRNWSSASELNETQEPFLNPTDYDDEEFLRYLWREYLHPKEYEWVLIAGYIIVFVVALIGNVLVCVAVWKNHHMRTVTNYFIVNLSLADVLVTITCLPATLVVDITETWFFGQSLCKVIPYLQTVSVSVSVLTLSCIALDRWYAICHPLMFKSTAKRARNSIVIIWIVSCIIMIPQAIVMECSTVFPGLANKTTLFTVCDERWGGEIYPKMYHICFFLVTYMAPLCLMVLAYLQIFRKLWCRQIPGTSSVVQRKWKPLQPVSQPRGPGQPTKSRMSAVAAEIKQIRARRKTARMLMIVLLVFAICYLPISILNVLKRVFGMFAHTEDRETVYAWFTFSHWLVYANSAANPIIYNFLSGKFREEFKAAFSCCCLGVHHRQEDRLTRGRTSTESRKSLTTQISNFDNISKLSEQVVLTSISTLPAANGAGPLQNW
Method: (§1) The orexin receptor antagonistic activity of the compounds of formula (I) and/or (Ia) is determined in accordance with the following experimental method.
(§2) Intracellular Calcium Measurements:
(§3) Chinese hamster ovary (CHO) cells expressing the human orexin-1 receptor and the human orexin-2 receptor, respectively, are grown in culture medium (Ham F-12 with L-Glutamine) containing 300 μg/ml G418, 100 U/ml penicillin, 100 μg/ml streptomycin and 10% inactivated fetal calf serum (FCS). The cells are seeded at 80'000 cells/well into 96-well black clear bottom sterile plates (Costar) which have been precoated with 1% gelatine in Hanks' Balanced Salt Solution (HBSS). All reagents are from Gibco BRL. The seeded plates are incubated overnight at 37° C. in 5% CO2.
(§4) Human orexin-A as an agonist is prepared as 1 mM stock solution in methanol:water (1:1), diluted in HBSS containing 0.1% bovine serum albumin (BSA) and 2 mM HEPES for use in the assay at a final concentration of 10 nM.
(§5) Antagonists are prepared as 10 mM stock solution in DMSO, then diluted in 96-well plates, first in DMSO, then in HBSS containing 0.1% bovine serum albumin (BSA) and 2 mM HEPES.
(§6) On the day of the assay, 100 μl of loading medium (HBSS containing 1% FCS, 2 mM HEPES, 5 mM probenecid (Sigma) and 3 μM of the fluorescent calcium indicator fluo-3 AM (1 mM stock solution in DMSO with 10% pluronic acid) (Molecular Probes) is added to each well.
(§7) The 96-well plates are incubated for 60 min at 37° C. in 5% CO2. The loading solution is then aspirated and cells are washed 3 times with 200 μl HBSS containing 2.5 mM probenecid, 0.1% BSA, 2 mM HEPES. 100 μl of that same buffer is left in each well.
(§8) Within the Fluorescent Imaging Plate Reader (FLIPR, Molecular Devices), antagonists are added to the plate in a volume of 50 μl, incubated for 20 min and finally 100 μl of agonist is added. Fluorescence is measured for each well at 1 second intervals, and the height of each fluorescence peak is compared to the height of the fluorescence peak induced by 10 nM orexin-A with buffer in place of antagonist. For each antagonist, IC50 value (the concentration of compound needed to inhibit 50% of the agonistic response) is determined. Antagonistic activities of compounds are in the nanomolar range with respect to OX1 and OX2 receptors.

[2] = biological target: T2, human orexin-1 receptor (Homo sapiens, UniProt O43613); experiment: Intracellular calcium measurements (FLIPR), orexin-A induced, CHO cells expressing human orexin-1 receptor; assay type: cell-based; settings: 10 nM orexin-A as agonist, read-out: IC50 OX1
T2 construct: expressed in transfected cells; host or cells: CHO cells (G418 selection)
T2 sequence (O43613 1-425): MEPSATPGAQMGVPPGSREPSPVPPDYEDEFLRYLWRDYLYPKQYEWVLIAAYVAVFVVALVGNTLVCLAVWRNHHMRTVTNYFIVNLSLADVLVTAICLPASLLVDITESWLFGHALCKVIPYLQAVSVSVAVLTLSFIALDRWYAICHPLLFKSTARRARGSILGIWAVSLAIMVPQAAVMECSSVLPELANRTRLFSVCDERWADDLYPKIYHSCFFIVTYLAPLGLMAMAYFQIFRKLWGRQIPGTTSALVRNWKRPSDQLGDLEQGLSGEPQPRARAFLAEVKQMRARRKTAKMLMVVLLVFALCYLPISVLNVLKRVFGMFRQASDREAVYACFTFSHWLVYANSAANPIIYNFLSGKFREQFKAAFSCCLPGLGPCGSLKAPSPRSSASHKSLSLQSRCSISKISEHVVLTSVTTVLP
Method: as §1, §2, §3, §4, §5, §6, §7, §8

| SMILES | IC50 [1] | IC50 [2] |
| --- | --- | --- |
| CCn1nc(C)c2c1CCN([C@@H](C(=O)NC)c1ccccc1)[C@H]2CCc1ccc(C)cc1 (stereo in doubt) [Example 6, 2-[1-Ethyl-3-methyl-4-(2-p-tolyl-ethyl)-1,4,6,7-tetrahydro-pyrazolo[4,3-c]pyridin-5-yl]-N-methyl-2-phenyl-acetamide] | 4 nM | 75 nM |
| CCn1nc(C)c2c1CCN([C@@H](C(=O)NC)c1ccccc1)[C@H]2CCc1ccc(C(F)(F)F)cc1F [Example 31, 2-{1-Ethyl-4-[2-(2-fluoro-4-trifluoromethyl-phenyl)-ethyl]-3-methyl-1,4,6,7-tetrahydro-pyrazolo[4,3-c]pyridin-5-yl}-N-methyl-2-phenyl-acetamide] | 8 nM | 52 nM |
| CCn1nc(C)c2c1CCN([C@@H](C(=O)NC)c1ccccc1)[C@H]2CCc1ccc(C)c(C)c1 [Example 33, 2-{4-[2-(3,4-Dimethyl-phenyl)-ethyl]-1-ethyl-3-methyl-1,4,6,7-tetrahydro-pyrazolo[4,3-c]pyridin-5-yl}-N-methyl-2-phenyl-acetamide] | 4 nM | 20 nM |
| CCn1nc(C)c2c1CCN([C@@H](C(=O)NC)c1ccccc1)[C@H]2CCc1ccc(C)cc1C [Example 35, 2-{4-[2-(2,4-Dimethyl-phenyl)-ethyl]-1-ethyl-3-methyl-1,4,6,7-tetrahydro-pyrazolo[4,3-c]pyridin-5-yl}-N-methyl-2-phenyl-acetamide] | 7 nM | 131 nM |

The next compounds have a lower IC50 [1] than those just listed; values first:

| IC50 [1] | IC50 [2] | SMILES |
| --- | --- | --- |
| 3 nM | 49 nM | CCn1nc(C)c2c1CCN(C(C(=O)NC)c1ccccc1)C2CCc1cc(C(F)(F)F)ccc1F (stereo not drawn) [Example 3, 2-{1-Ethyl-4-[2-(2-fluoro-5-trifluoromethyl-phenyl)-ethyl]-3-methyl-1,4,6,7-tetrahydro-pyrazolo[4,3-c]pyridin-5-yl}-N-methyl-2-phenyl-acetamide] |
| 2 nM | 49 nM | CCn1nc(C)c2c1CCN([C@@H](C(=O)NC)c1ccccc1)[C@H]2CCc1ccc(C)c(F)c1 [Example 32, 2-{1-Ethyl-4-[2-(3-fluoro-4-methyl-phenyl)-ethyl]-3-methyl-1,4,6,7-tetrahydro-pyrazolo[4,3-c]pyridin-5-yl}-N-methyl-2-phenyl-acetamide] |
